Consider 26 compounds from patent US8404670B2 (Sunovion Pharmaceuticals Inc., priority 2009, dated 2013).

What is called IC50 is the point on the concentration scale where inhibition reaches its midpoint.

The target in the assay is T1, human histamine H3 receptor (Homo sapiens, UniProt Q9Y5N1).
T1 construct: host or cells: cells expressing the human H3 receptor
In words: H3 GTPγS assay (SPA method), histamine H3 in vitro assay. The class given is biochemical. The conditions noted are these: GTPγ[35S] binding to membranes of cells expressing human H3; antagonist mode with R-γ-Me-Histamine at EC80 (30 nM); in one embodiment HCl salts tested; read-out: Potency (functional potency as indicated by IC50). For orientation: GTPγS is a poorly hydrolysed GTP analogue; its binding reports G protein activation.

T1 sequence (Q9Y5N1 whole entry): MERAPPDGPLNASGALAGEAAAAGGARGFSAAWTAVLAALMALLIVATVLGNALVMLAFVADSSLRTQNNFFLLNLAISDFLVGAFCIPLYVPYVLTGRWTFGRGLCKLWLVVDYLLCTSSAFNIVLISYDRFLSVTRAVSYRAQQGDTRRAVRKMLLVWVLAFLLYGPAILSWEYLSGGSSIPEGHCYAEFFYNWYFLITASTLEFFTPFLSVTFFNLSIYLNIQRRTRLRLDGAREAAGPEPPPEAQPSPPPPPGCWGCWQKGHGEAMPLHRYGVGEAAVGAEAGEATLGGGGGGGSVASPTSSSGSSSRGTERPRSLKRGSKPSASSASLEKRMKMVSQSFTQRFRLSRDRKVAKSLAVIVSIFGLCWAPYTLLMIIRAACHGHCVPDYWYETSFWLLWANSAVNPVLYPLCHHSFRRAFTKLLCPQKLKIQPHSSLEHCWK

Take `Cc1ccc2nc(C)n(-c3ccc4c(c3)nc3n4CCN(C4CCC4)CC3)c2c1` [Compound 209, 3-cyclobutyl-8-(2,6-dimethyl-1H-benzo[d]imidazol-1-yl)-2,3,4,5-tetrahydro-1H-benzo[4,5]imidazo[1,2-d][1,4]diazepine]: the IC50 is at most 10 nM.
Consider `c1cc2c(cc1-c1ccc3c(c1)nc1n3CCN(C3CCC3)CC1)OCO2` [Compound 210, 8-(benzo[d][1,3]dioxol-5-yl)-3-cyclobutyl-2,3,4,5-tetrahydro-1H-benzo[4,5]imidazo[1,2-d][1,4]diazepine], for which the concentration for half-maximal inhibition (IC50) was at most 10 nM.
Turning to `Clc1ccc(-c2ccc3c(c2)nc2n3CCN(C3CCC3)CC2)cc1Cl` [Compound 211, 3-cyclobutyl-8-(3,4-dichlorophenyl)-2,3,4,5-tetrahydro-1H-benzo[4,5]imidazo[1,2-d][1,4]diazepine], the half-maximal inhibitory concentration (IC50) is at most 100 nM.
In the case of `CC(C)(C)c1ccc(-c2ccc3c(c2)nc2n3CCN(C3CCC3)CC2)cc1` [Compound 212, 8-(4-(tert-butyl)phenyl)-3-cyclobutyl-2,3,4,5-tetrahydro-1H-benzo[4,5]imidazo[1,2-d][1,4]diazepine] it was at most 10 nM.
In the case of `FC(F)(F)c1ccc(-c2ccc3c(c2)nc2n3CCN(C3CCC3)CC2)cc1` [Compound 213, 3-cyclobutyl-8-(4-(trifluoromethyl)phenyl)-2,3,4,5-tetrahydro-1H-benzo[4,5]imidazo[1,2-d][1,4]diazepine], the IC50 is at most 100 nM.
As for `c1ccc2cc(-c3ccc4c(c3)nc3n4CCN(C4CCC4)CC3)ccc2c1` [Compound 214, 3-cyclobutyl-8-(naphthalen-2-yl)-2,3,4,5-tetrahydro-1H-benzo[4,5]imidazo[1,2-d][1,4]diazepine], the figure is at most 100 nM; as for `O=c1[nH]c2cc(-c3ccc4c(c3)nc3n4CCN(C4CCC4)CC3)ccc2o1` [Compound 215, 5-(3-cyclobutyl-2,3,4,5-tetrahydro-1H-benzo[4,5]imidazo[1,2-d][1,4]diazepin-8-yl)benzo[d]oxazol-2(3H)-one], at most 100 nM; as for `O=C1CCc2cc(-c3ccc4c(c3)nc3n4CCN(C4CCC4)CC3)ccc2N1` [Compound 216, 6-(3-cyclobutyl-2,3,4,5-tetrahydro-1H-benzo[4,5]imidazo[1,2-d][1,4]diazepin-8-yl)-3,4-dihydroquinolin-2(1H)-one], at most 10 nM.
In the case of `c1nc2cc(-c3ccc4c(c3)nc3n4CCN(C4CCC4)CC3)ccc2[nH]1` [Compound 217, 8-(1H-benzo[d]imidazol-5-yl)-3-cyclobutyl-2,3,4,5-tetrahydro-1H-benzo[4,5]imidazo[1,2-d][1,4]diazepine] it was at most 100 nM.
As for `c1cc2c(cc1-c1cnc3[nH]ncc3c1)nc1n2CCN(C2CCC2)CC1` [Compound 223, 3-cyclobutyl-8-(1H-pyrazolo[3,4-b]pyridin-5-yl)-2,3,4,5-tetrahydro-1H-benzo[4,5]imidazo[1,2-d][1,4]diazepine], the figure is at most 10 nM; as for `c1ccc(CN2CCN(c3ccc4c(c3)nc3n4CCN(C4CCC4)CC3)CC2)cc1` [Compound 224, 8-(4-benzylpiperazin-1-yl)-3-cyclobutyl-2,3,4,5-tetrahydro-1H-benzo[4,5]imidazo[1,2-d][1,4]diazepine], at most 10 nM.
On to `c1cc2c(cc1N1CCC(N3CCOCC3)CC1)nc1n2CCN(C2CCC2)CC1` [Compound 225, 4-(1-(3-cyclobutyl-2,3,4,5-tetrahydro-1H-benzo[4,5]imidazo[1,2-d][1,4]diazepin-8-yl)piperidin-4-yl)morpholine], for which the IC50 was at most 10 nM.
For the compound `c1cc2c(cc1N1CCCC1)nc1n2CCN(C2CCC2)CC1` [Compound 226, 3-cyclobutyl-8-(pyrrolidin-1-yl)-2,3,4,5-tetrahydro-1H-benzo[4,5]imidazo[1,2-d][1,4]diazepine], the IC50 is at most 100 nM.
As to `c1ccc(C2CCN(c3ccc4c(c3)nc3n4CCN(C4CCC4)CC3)CC2)cc1` [Compound 227, 3-cyclobutyl-8-(4-phenylpiperidin-1-yl)-2,3,4,5-tetrahydro-1H-benzo[4,5]imidazo[1,2-d][1,4]diazepine], the IC50 is at most 100 nM.
For `N#Cc1ccc(N2CCN(c3ccc4c(c3)nc3n4CCN(C4CCC4)CC3)CC2)cc1` [Compound 228, 4-(4-(3-cyclobutyl-2,3,4,5-tetrahydro-1H-benzo[4,5]imidazo[1,2-d][1,4]diazepin-8-yl)piperazin-1-yl)benzonitrile], the IC50 was at most 10 nM.
As for `c1ccc(N2CCN(c3ccc4c(c3)nc3n4CCN(C4CCC4)CC3)CC2)cc1` [Compound 229, 3-cyclobutyl-8-(4-phenylpiperazin-1-yl)-2,3,4,5-tetrahydro-1H-benzo[4,5]imidazo[1,2-d][1,4]diazepine], the figure is at most 10 nM.
Regarding `c1ccc(N2CCN(c3ccc4c(c3)nc3n4CCN(C4CCC4)CC3)CC2)nc1` [Compound 230, 3-cyclobutyl-8-(4-(pyridin-2-yl)piperazin-1-yl)-2,3,4,5-tetrahydro-1H-benzo[4,5]imidazo[1,2-d][1,4]diazepine], the half-inhibitory concentration (IC50) was at most 10 nM.
For `Fc1ccc(N2CCN(c3ccc4c(c3)nc3n4CCN(C4CCC4)CC3)CC2)cc1` [Compound 231, 3-cyclobutyl-8-(4-(4-fluorophenyl)piperazin-1-yl)-2,3,4,5-tetrahydro-1H-benzo[4,5]imidazo[1,2-d][1,4]diazepine], the concentration for half-maximal inhibition (IC50) is at most 10 nM.
Turning to `c1csc(N2CCN(c3ccc4c(c3)nc3n4CCN(C4CCC4)CC3)CC2)n1` [Compound 232, 2-(4-(3-cyclobutyl-2,3,4,5-tetrahydro-1H-benzo[4,5]imidazo[1,2-d][1,4]diazepin-8-yl)piperazin-1-yl)thiazole], the concentration for half-maximal inhibition (IC50) is at most 10 nM.
For `c1cnc(N2CCN(c3ccc4c(c3)nc3n4CCN(C4CCC4)CC3)CC2)cn1` [Compound 233, 3-cyclobutyl-8-(4-(pyrazin-2-yl)piperazin-1-yl)-2,3,4,5-tetrahydro-1H-benzo[4,5]imidazo[1,2-d][1,4]diazepine], the IC50 was at most 10 nM.
For `c1ccc(N2CCN(c3ccc4nc5n(c4c3)CCN(C3CCC3)CC5)CC2)nc1` [Compound 234, 3-cyclobutyl-9-(4-(pyridin-2-yl)piperazin-1-yl)-2,3,4,5-tetrahydro-1H-benzo[4,5]imidazo[1,2-d][1,4]diazepine], the 50% inhibitory concentration (IC50) was at most 100 nM.
As for `Brc1cnc2c(c1)nc1n2CCN(C2CCC2)CC1` [Compound 235, 7-Aza-3-cyclobutyl-9-bromo-2,3,4,5-tetrahydro-1H-[1,4]diazepino[1,7-a]benzimidazole], the figure is at least 1000 nM; as for `c1cnc(-c2cnc3c(c2)nc2n3CCN(C3CCC3)CC2)cn1` [Compound 236, 7-Aza-3-cyclobutyl-9-(pyrazin-2-yl)-2,3,4,5-tetrahydro-1H-[1,4]diazepino[1,7-a]benzimidazole], at most 1000 nM.
As for `N#Cc1ccc(-c2cnc3c(c2)nc2n3CCN(C3CCC3)CC2)cc1` [Compound 237, 4-(7-aza-3-cyclobutyl-2,3,4,5-tetrahydro-1H-[1,4]diazepino[1,7-a]benzimidazol-9-yl)benzonitrile], the IC50 is at most 100 nM.
As for `c1coc(-c2cnc3c(c2)nc2n3CCN(C3CCC3)CC2)c1` [Compound 238], the concentration for half-maximal inhibition (IC50) is at most 1000 nM.
With `NCc1ccc(-c2cnc3c(c2)nc2n3CCN(C3CCC3)CC2)cc1` [Compound 239], the half-inhibitory concentration (IC50) is at most 100 nM.
